According to paper PMC9898036, “VIP152 is a selective CDK9 inhibitor with pre-clinical in vitro and in vivo efficacy in chronic lymphocytic leukemia” (Leukemia, 2022):

What was measured:
[1] = target: CDK9 in complex with Cyclin T1 (Homo sapiens, UniProt P50750); test: NanoBRET target engagement assay (HEK293); assay type: cell-based
[2] = target: Histamine H1 (Homo sapiens, UniProt P35367); test: Eurofins Diversity Panel; assay type: binding; settings: hum, Conc. 10 μM
[3] = target: Interleukin IL-1 (Mus musculus, UniProt P13504); test: Eurofins Diversity Panel; assay type: binding; settings: Conc. 10 μM
[4] = target: Neuropeptide Y Y1 (Homo sapiens, UniProt P25929); test: Eurofins Diversity Panel; assay type: binding; settings: hum, Conc. 10 μM
[5] = target: Potassium Channel [KATP] (Cricetus cricetus, UniProt Q09427); test: Eurofins Diversity Panel; assay type: binding, hamster; settings: ham, Conc. 10 μM
Protocol: The structure and synthesis of VIP152 were recently described by Lücking et al.. (Fig. 1A); however, the selectivity of the molecule in cellular systems has yet to be explored. […] We also performed this experiment at 1000 nM, where CDK9 was inhibited at 99%. […] We found a strong concordance between our data and those of Lücking when comparing the most inhibited kinases. Potential off-target effects of VIP152 were next tested in vitro at a concentration of 10 µM for off-target activity against a broad range of receptors, transporters, ion channels, and enzymes (n = 138) using the Eurofins Diversity Panel.

[6] = target: T1, Sigma σ1 (Homo sapiens, UniProt Q99720); test: Eurofins Diversity Panel; assay type: binding; settings: hum
T1 construct: purchased Eurofins

[7] = target: Tachykinin NK1 (Homo sapiens, UniProt P25103); test: Eurofins Diversity Panel; assay type: binding; settings: hum, Conc. 10 μM
[8] = target: Transporter, Norepinephrine (NET) (Homo sapiens, UniProt P23975); test: Eurofins Diversity Panel; assay type: binding; settings: hum, Conc. 10 μM
[9] = target: RET(V804M) (Homo sapiens, UniProt P07949, V804M); test: KINOMEscan: RET(V804M); assay type: binding; settings: 100 nM, read-out: Percent Control
[10] = target: RIPK1 (Homo sapiens, UniProt Q13546); test: KINOMEscan: RIPK1; assay type: binding; settings: 100 nM, read-out: Percent Control
[11] = target: RIPK5 (Homo sapiens, UniProt Q6XUX3); test: KINOMEscan: RIPK5; assay type: binding; settings: 100 nM, read-out: Percent Control
[12] = target: RSK3(Kin.Dom.1-N-terminal) (Homo sapiens, UniProt Q15349); test: KINOMEscan: RSK3(Kin.Dom.1-N-terminal); assay type: binding; settings: 100 nM, read-out: Percent Control
[13] = target: SGK2 (Homo sapiens, UniProt Q9HBY8); test: KINOMEscan: SGK2; assay type: binding; settings: 100 nM, read-out: Percent Control
[14] = target: TAOK3 (Homo sapiens, UniProt Q9H2K8); test: KINOMEscan: TAOK3; assay type: binding; settings: 100 nM, read-out: Percent Control
[15] = target: TNK2 (Homo sapiens, UniProt Q07912); test: KINOMEscan: TNK2; assay type: binding; settings: 100 nM, read-out: Percent Control
[16] = target: TRKA (Homo sapiens, UniProt P04629); test: KINOMEscan: TRKA; assay type: binding; settings: 100 nM, read-out: Percent Control
[17] = target: TRKC (Homo sapiens, UniProt Q16288); test: KINOMEscan: TRKC; assay type: binding; settings: 100 nM, read-out: Percent Control
[18] = target: ACVR2B (Homo sapiens, UniProt Q13705); test: KINOMEscan: ACVR2B; assay type: binding; settings: 1000 nM, read-out: Percent Control
[19] = target: ADCK3 (Homo sapiens, UniProt Q8NI60); test: KINOMEscan: ADCK3; assay type: binding; settings: 1000 nM, read-out: Percent Control
[20] = target: AKT2 (Homo sapiens, UniProt P31751); test: KINOMEscan: AKT2; assay type: binding; settings: 1000 nM, read-out: Percent Control
[21] = target: AURKC (Homo sapiens, UniProt Q9UQB9); test: KINOMEscan: AURKC; assay type: binding; settings: 1000 nM, read-out: Percent Control
[22] = target: BMPR1B (Homo sapiens, UniProt O00238); test: KINOMEscan: BMPR1B; assay type: binding; settings: 1000 nM, read-out: Percent Control
[23] = target: BRK (Homo sapiens, UniProt Q13882); test: KINOMEscan: BRK; assay type: binding; settings: 1000 nM, read-out: Percent Control
[24] = target: BTK (Homo sapiens, UniProt Q06187); test: KINOMEscan: BTK; assay type: binding; settings: 1000 nM, read-out: Percent Control
[25] = target: CAMK2B (Homo sapiens, UniProt Q13554); test: KINOMEscan: CAMK2B; assay type: binding; settings: 1000 nM, read-out: Percent Control
[26] = target: CDK4-cyclinD1 (Homo sapiens, UniProt P11802); test: KINOMEscan: CDK4-cyclinD1; assay type: binding; settings: 1000 nM, read-out: Percent Control
[27] = target: DCAMKL1 (Homo sapiens, UniProt O15075); test: KINOMEscan: DCAMKL1; assay type: binding; settings: 1000 nM, read-out: Percent Control
[28] = target: DMPK (Homo sapiens, UniProt Q09013); test: KINOMEscan: DMPK; assay type: binding; settings: 1000 nM, read-out: Percent Control
[29] = target: DYRK1A (Homo sapiens, UniProt Q13627); test: KINOMEscan: DYRK1A; assay type: binding; settings: 1000 nM, read-out: Percent Control
[30] = target: EIF2AK1 (Homo sapiens, UniProt Q9BQI3); test: KINOMEscan: EIF2AK1; assay type: binding; settings: 1000 nM, read-out: Percent Control
[31] = target: EPHA3 (Homo sapiens, UniProt P29320); test: KINOMEscan: EPHA3; assay type: binding; settings: 1000 nM, read-out: Percent Control
[32] = target: FLT3(K663Q) (Homo sapiens, UniProt P36888, K663Q); test: KINOMEscan: FLT3(K663Q); assay type: binding; settings: 1000 nM, read-out: Percent Control
[33] = target: GRK4 (Homo sapiens, UniProt P32298); test: KINOMEscan: GRK4; assay type: binding; settings: 1000 nM, read-out: Percent Control
[34] = target: MAP3K4 (Homo sapiens, UniProt Q9Y6R4); test: KINOMEscan: MAP3K4; assay type: binding; settings: 1000 nM, read-out: Percent Control
[35] = target: MEK4 (Homo sapiens, UniProt P45985); test: KINOMEscan: MEK4; assay type: binding; settings: 1000 nM, read-out: Percent Control
[36] = target: MKNK2 (Homo sapiens, UniProt Q9HBH9); test: KINOMEscan: MKNK2; assay type: binding; settings: 1000 nM, read-out: Percent Control
[37] = target: MLCK (Homo sapiens, UniProt Q32MK0); test: KINOMEscan: MLCK; assay type: binding; settings: 1000 nM, read-out: Percent Control

T1 sequence (Q99720 whole entry): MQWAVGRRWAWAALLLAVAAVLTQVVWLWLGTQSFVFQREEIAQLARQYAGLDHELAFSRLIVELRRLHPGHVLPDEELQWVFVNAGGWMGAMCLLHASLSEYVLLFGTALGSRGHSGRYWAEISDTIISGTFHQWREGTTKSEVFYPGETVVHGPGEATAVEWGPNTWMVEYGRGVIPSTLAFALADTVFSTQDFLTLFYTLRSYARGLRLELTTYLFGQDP
Chain of DMPK (Q09013 whole entry): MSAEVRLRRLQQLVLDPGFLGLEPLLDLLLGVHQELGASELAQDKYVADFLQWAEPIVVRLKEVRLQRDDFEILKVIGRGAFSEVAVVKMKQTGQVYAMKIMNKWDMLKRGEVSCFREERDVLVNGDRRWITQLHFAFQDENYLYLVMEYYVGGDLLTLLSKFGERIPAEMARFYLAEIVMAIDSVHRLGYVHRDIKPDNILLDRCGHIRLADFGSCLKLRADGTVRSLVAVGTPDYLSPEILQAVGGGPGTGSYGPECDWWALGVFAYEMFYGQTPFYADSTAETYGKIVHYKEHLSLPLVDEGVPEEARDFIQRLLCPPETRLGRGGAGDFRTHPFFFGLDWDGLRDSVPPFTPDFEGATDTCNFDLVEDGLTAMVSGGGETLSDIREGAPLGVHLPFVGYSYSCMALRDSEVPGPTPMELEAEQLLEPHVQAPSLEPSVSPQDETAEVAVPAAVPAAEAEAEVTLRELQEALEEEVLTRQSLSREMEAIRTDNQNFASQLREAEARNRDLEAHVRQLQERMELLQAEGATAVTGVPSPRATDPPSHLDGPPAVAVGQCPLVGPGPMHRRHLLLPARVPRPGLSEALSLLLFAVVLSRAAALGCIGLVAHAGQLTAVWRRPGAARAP
Chain of EIF2AK1 (Q9BQI3 whole entry): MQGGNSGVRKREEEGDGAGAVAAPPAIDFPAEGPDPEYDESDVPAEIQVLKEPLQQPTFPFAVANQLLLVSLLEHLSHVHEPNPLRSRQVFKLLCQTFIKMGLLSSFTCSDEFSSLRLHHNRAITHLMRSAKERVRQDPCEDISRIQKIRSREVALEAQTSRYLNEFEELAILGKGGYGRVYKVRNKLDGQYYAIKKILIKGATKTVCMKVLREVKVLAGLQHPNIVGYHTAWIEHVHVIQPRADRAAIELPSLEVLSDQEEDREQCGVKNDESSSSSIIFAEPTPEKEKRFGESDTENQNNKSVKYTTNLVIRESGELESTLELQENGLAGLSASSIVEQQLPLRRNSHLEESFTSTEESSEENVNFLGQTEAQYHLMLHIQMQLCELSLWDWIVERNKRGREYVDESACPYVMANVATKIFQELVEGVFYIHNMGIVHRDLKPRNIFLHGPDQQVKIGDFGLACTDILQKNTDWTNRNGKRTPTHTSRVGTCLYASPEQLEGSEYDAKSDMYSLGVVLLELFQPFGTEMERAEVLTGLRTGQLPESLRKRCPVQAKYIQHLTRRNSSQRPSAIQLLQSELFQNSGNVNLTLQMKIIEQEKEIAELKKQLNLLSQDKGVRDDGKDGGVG
Chain of BRK (Q13882 whole entry): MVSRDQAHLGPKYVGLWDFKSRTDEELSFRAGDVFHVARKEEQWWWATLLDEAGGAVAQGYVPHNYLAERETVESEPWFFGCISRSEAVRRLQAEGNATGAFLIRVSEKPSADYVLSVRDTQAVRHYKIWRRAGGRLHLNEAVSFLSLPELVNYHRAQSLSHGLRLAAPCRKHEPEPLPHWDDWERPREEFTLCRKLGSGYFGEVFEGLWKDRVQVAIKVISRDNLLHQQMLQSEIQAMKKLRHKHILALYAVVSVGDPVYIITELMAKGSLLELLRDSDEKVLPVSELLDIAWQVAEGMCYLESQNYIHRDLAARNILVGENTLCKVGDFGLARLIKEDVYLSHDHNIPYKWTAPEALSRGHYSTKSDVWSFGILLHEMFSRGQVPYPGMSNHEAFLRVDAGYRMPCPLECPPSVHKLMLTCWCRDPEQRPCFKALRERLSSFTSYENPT
Chain of TRKA (P04629 33-796): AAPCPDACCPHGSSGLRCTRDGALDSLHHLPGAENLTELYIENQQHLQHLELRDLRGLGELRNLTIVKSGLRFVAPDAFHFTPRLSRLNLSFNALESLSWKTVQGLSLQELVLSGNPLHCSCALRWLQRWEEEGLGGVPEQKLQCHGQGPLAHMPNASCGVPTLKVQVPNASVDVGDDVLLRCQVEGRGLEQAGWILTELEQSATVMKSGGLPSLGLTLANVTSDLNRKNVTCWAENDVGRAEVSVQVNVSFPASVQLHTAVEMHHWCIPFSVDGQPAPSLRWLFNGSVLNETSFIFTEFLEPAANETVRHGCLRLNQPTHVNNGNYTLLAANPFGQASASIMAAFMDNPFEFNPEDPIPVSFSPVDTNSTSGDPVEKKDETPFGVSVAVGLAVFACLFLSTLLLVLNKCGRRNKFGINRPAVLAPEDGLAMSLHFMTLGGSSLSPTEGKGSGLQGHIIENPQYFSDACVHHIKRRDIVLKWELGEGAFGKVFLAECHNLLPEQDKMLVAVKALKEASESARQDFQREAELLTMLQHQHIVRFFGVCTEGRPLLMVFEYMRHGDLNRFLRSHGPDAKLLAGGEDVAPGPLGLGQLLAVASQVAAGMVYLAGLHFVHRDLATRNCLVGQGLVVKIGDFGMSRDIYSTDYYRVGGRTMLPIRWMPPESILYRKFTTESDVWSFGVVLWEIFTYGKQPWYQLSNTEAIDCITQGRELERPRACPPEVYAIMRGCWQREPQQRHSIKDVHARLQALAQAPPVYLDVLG
Chain of Histamine H1 (P35367 whole entry): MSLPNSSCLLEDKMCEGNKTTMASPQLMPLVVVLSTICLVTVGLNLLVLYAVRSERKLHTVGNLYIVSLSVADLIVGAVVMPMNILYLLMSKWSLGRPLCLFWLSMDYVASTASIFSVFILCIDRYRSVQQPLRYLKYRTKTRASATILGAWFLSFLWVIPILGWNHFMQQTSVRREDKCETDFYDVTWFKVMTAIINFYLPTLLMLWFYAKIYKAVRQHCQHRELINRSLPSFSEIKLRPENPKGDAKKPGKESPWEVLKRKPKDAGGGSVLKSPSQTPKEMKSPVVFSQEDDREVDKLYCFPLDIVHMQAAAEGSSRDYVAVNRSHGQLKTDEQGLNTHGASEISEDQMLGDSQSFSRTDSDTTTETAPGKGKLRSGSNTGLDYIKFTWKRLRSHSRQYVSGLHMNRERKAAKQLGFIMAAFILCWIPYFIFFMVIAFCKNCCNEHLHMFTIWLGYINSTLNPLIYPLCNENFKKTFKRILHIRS
Chain of Tachykinin NK1 (P25103 whole entry): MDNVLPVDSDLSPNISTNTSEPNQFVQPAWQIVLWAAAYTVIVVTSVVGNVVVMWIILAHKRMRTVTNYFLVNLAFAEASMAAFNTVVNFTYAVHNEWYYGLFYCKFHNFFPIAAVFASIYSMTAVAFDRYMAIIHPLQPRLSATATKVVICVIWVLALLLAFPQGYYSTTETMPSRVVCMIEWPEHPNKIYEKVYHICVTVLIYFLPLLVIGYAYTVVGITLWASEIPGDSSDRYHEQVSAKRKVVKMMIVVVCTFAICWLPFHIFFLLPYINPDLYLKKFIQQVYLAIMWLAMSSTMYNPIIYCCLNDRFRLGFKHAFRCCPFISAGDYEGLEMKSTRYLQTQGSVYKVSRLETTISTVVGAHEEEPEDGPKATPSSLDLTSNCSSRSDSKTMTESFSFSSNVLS
Chain of CAMK2B (Q13554 whole entry): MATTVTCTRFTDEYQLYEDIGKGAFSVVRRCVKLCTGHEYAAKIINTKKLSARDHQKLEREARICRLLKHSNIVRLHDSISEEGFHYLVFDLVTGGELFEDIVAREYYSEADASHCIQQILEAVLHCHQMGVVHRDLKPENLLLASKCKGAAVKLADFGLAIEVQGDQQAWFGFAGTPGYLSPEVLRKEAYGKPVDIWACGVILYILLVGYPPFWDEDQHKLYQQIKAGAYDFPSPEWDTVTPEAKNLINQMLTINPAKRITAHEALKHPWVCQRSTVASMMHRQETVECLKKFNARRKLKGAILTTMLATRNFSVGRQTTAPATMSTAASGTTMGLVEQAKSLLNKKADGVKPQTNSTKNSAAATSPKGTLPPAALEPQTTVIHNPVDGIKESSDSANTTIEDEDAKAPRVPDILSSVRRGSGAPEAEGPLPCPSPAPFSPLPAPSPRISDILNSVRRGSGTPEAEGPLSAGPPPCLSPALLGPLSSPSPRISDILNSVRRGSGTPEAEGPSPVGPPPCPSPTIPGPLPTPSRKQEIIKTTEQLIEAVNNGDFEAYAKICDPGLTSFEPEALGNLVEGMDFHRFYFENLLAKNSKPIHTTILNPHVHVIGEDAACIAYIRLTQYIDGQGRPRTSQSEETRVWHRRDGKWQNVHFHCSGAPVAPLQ
Chain of SGK2 (Q9HBY8 whole entry): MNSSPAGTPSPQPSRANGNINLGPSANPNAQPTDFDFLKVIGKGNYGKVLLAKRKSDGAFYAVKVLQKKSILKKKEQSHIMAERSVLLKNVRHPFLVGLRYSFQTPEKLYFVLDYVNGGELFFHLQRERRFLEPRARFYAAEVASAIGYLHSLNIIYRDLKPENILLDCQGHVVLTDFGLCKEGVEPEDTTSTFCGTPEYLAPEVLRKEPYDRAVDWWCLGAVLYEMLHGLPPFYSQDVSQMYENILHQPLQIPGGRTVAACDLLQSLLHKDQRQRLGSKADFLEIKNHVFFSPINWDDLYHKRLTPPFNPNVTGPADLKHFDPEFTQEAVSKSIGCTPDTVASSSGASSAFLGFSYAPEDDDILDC
Chain of AURKC (Q9UQB9 whole entry): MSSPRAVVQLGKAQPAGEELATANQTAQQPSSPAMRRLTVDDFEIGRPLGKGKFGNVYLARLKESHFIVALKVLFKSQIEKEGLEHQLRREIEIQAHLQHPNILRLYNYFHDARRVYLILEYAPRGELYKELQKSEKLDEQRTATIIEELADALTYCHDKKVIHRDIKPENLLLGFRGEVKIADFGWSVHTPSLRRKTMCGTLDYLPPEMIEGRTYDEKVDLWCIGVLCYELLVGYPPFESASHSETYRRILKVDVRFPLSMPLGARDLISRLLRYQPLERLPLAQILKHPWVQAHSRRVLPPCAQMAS

What does the source list for COc1cc(F)ccc1-c1cc(Nc2cc(CS(C)(=N)=O)ccn2)ncc1F (stereo not shown) [VIP152]?
potency versus the other inhibitors [1]: higher potency; inhibition at 10 µM [2]: 1%; inhibition at 10 µM [3]: -5%; inhibition at 10 µM [4]: -3%; inhibition at 10 µM [5]: -19%; IC50 [6]: 1.78 µM; Ki [6]: 0.75 µM; nH [6]: 0.75; inhibition at 10 µM ([6]; Conc. 10 μM): 71%; inhibition at 10 µM [7]: 19%; inhibition at 10 µM [8]: 37%; remaining binding at 0.1 µM [9]: 100%; remaining binding at 0.1 µM [10]: 100%; remaining binding at 0.1 µM [11]: 83%; remaining binding at 0.1 µM [12]: 100%; remaining binding at 0.1 µM [13]: 100%; remaining binding at 0.1 µM [14]: 88%; remaining binding at 0.1 µM [15]: 100%; remaining binding at 0.1 µM [16]: 65%; remaining binding at 0.1 µM [17]: 83%; remaining binding at 1 µM [18]: 65%; remaining binding at 1 µM [19]: 97%; remaining binding at 1 µM [20]: 100%; remaining binding at 1 µM [21]: 38%; remaining binding at 1 µM [22]: 46%; remaining binding at 1 µM [23]: 79%; remaining binding at 1 µM [24]: 100%; remaining binding at 1 µM [25]: 65%; remaining binding at 1 µM [26]: 7.8%; remaining binding at 1 µM [27]: 86%; remaining binding at 1 µM [28]: 62%; remaining binding at 1 µM [29]: 12%; remaining binding at 1 µM [30]: 100%; remaining binding at 1 µM [31]: 89%; remaining binding at 1 µM [32]: 80%; remaining binding at 1 µM [33]: 26%; remaining binding at 1 µM [34]: 82%; remaining binding at 1 µM [35]: 89%; remaining binding at 1 µM [36]: 96%; remaining binding at 1 µM [37]: 100%
